19 molecules from US10138212B2, “Aminoquinazoline compounds as A2A antagonist” (Merck Sharp & Dohme Corp., priority 2015, dated 2018) can be followed below.

One assay concerns the target human A2a receptor (Homo sapiens (Human), UniProt P29274). Nature of the assay: A2a competition binding assay using Scintillation Proximity technology. The procedure:
(§1) Binding affinities of compounds of the invention for the human A2a receptor were determined in a competition binding assay using Scintillation Proximity technology. Thus, 1* μg, or preferably 0.25 μg of membranes from HEK293 cells expressing the human A2a receptor were incubated with a compound of the invention at concentrations ranging from 3000 nM to 0.15 nM in a reaction mixture containing also 0.5 nM of a tritiated form of 5-amino-7-[2-phenethyl]-2-(furan-2-yl)-7H-pyrazolo[4,3-e][1,2,4]triazolo[1,5-c]pyrimidine (the tritiated compound) and 25 μg of wheat germ agglutin-coated yttrium silicate SPA beads for one hour at room temperature with agitation. The beads were then allowed to settle to the bottom of the wells for 1 hr, after which the membrane-associated radioactivity was determined by scintillation counting in a TopCount microplate reader. Ki values were determined using the Cheng-Prusoff equation.
HEK293 cells expressing the human, rat, dog or monkey adenosine 2a receptor (Purchased from Perkin-Elmer # RBHA2AM400UA).
The Tritiated compound was prepared in-house by MRL Radiochemistry according to published methods.
Wheat germ agglutinin-coated yttrium silicate SPA beads (GE Healthcare #RPNQ0023). Dilute to 25 mg/ml in assay buffer.
Assay Buffer was prepared in house: Dulbecco's calcium and magnesium free phosphate buffered saline+10 mM MgCl2
Adenosine deaminase from calf intestine, 10 mg/2 ml (Roche #10 102 105 001).
A2a antagonist standard (9-chloro-1-(2-furanyl)-[1,2,4]triazolo1,5-c]quinazolin-5-amine from Tocris Bioscience)
Make eight 1:3 serial dilutions in 100% DMSO from a 3 mM compound stock
Transfer 50 nl of compound into a 384-well OptiPlate (Perkin Elmer).
Typically, final concentrations of compound used in the assay ranged from 3000 nM to 0.152 nM.
Dilute a solution of the Tritiated compound to 1.25 nM in assay buffer. This is a 2.5× solution. The final concentration in the assay is 0.5 nM. Calculate the concentration by counting two 5 μl aliquots.
Use *1 ug or preferrably 0.25 ug of membrane/well. Dilute membranes to 9.7 μg/ml in assay buffer. Treat with 20 ug/ml adenosine deaminase (ADA) for 15 minutes at room temperature to degrade endogenous adenosine.
Use 25 μg/well wheat germ agglutinin-coated yttrium silicate SPA beads.
Mix ADA-treated membranes and SPA beads together for 30 min prior to assay.
To the Perkin-Elmer Optiplate-384 containing the compound titration add 20 μl of 2.5× solution of the Tritiated compound and 30 μl of the membrane-bead mixture. Incubate for one hour at room temperature with agitation.
Include total binding (assay buffer+1% DMSO) and non-specific binding (CGS15943, 1 μM) wells.
Allow the beads to settle for one hour.
A curve fitting program (i.e., Prism, Activity Base, Chemcart) is used to determine the EC50. The Ki value is calculated using the Cheng-Prusoff equation. Ki=EC50/(1+(radioligand concentration/Kd))
Using the foregoing assay method, the Ki results were obtained using the compounds of the invention described in Tables IIIa, IIIb, and IV. Each example compound tested is reported in the following format: Example number: A2a Ki reported in nM. Thus, for example, the compound Ex-1 was determined to have an Ki using the above-described assay and calculations, of 10.0 nM.

In a further assay the target is human A1 receptor (Homo sapiens (Human), UniProt P30542). Nature of the assay: A1 competition binding assay using Scintillation Proximity technology; selectivity = A1 binding Ki / A2a binding Ki. As to conditions: A1 binding Ki divided by A2a binding Ki. Here is the method:
as §1, with “A1” for “A2a”, “5” for “1* μg, or preferably 0.25 μg”, “CHO-K1” for “HEK293”, “0.7” for “0.5”, “8-Cyclopentyl-1,3-dipropylxanthine” for “5-amino-7-[2-phenethyl]-2-(furan-2-yl)-7H-pyrazolo[4,3-e][1,2,4]triazolo[1,5-c]pyrimidine”, “in a similar fashion described with A2a binding.” for “using the Cheng-Prusoff equation.”
• Cells expressing the human, rat, dog or monkey adenosine 1 receptor (Purchased from Perkin-Elmer # ES-010-M400UA • [^3H]DPCPX (purchased from Perkin-Elmer NET-974, 8-cyclopentyl-1,3-dipropylxanthine, [dipropyl-2,3-^3H(N)]. • Wheatgerm agglutinin-coated yttrium silicate SPA beads (Purchased from GE Healthcare #RPNQ0023). Dilute to 25 mg/ml in assay buffer. Store at 4° C. • Assay Buffer—Dulbecco's phosphate buffered saline without calcium and without magnesium+10 mM MgCl2 • Adenosine deaminase from calf intestine, 10 mg/2 ml (Roche #10 102 105 001). • DMSO • DPCPX (A1 antagonist) from Tocris Bioscience Compound Dilution • Dilute compounds to 1 mM in 100% DMSO
Make serial dilutions as necessary (i.e., 1:10, 1:3) in 100% DMSO.
Dilute 1:20 into assay buffer (i.e. 3 ul into 57 ul buffer). This is a 5× solution in 5% DMSO.
• Dilute [^3H]DPCPX to 1.75 nM in assay buffer. This is a 2.5× solution. The final concentration in the assay is 0.7 nM. Calculate the concentration by counting two 5 ul aliquots. Membrane Preparation • Use 5 ug of membrane/well. Dilute membranes to 250 ug/ml in assay buffer. Treat with 20 ug/ml adenosine deaminase (ADA) for 15 minutes at room temperature to degrade endogenous adenosine. Membrane-Bead Mixture • Use 25 ug/well wheatgerm agglutinin-coated yttrium silicate SPA beads • Mix ADA-treated membranes and SPA beads together for 30 min prior to assay. Assay Assembly • Add in order to a Perkin-Elmer Optiplate-384: 10 ul of 5× compound, 20 ul of 2.5× [^3H]DPCPX, 20 ul membrane-bead mixture. Incubate for one hour at room temperature with agitation. • Include total binding (assay buffer+1% DMSO) and non-specific binding (DPCPX, 1 uM) wells. Counting and Calculations

Setting [1] is: 0.25 μg of membranes from HEK293 cells expressing the human A2a receptor.
[2] abbreviates: * assay run with 1 μg of membranes versus 0.25 μg, HEK293 cells expressing the human A2a receptor.

Sequence of human A1 receptor (P30542 whole entry): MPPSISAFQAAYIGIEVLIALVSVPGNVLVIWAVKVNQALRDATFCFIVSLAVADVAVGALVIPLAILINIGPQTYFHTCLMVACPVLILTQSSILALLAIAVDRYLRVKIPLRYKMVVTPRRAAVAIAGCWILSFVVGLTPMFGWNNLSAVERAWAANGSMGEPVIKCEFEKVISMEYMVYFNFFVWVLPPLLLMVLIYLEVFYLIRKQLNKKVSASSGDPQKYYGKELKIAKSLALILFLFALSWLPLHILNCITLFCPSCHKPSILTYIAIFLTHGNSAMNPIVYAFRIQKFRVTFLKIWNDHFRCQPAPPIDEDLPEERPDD
Sequence of human A2a receptor (P29274 whole entry): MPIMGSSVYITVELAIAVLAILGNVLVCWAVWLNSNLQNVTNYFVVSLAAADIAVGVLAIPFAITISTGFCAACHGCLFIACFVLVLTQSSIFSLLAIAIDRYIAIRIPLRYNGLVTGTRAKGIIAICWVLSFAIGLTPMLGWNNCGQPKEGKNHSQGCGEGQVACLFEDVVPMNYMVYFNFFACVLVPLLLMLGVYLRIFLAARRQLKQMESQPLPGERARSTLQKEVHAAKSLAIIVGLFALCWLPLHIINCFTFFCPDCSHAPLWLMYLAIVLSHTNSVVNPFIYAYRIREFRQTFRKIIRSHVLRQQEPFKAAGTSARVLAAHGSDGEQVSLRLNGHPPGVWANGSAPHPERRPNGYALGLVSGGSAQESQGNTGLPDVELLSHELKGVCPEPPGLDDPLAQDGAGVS

Molecule `C[C@@H](NC(=O)c1nc(N)nc2c(F)cccc12)c1cccc2cccnc12` [Example 88, 2-amino-8-fluoro-N-[(1R)-1-(8-quinolyl)ethyl]quinazoline-4-carboxamide] registered a Ki at human A2a receptor (setting [1]) of 6.7 nM. In addition, the “A2a selectivity (A2a A1 binding selectivity)” value (from here on “A2a selectivity”) on human A1 receptor came out at 8.
`COc1cccc2c(C(=O)NCc3ccccc3-c3cccnc3)nc(N)nc12` [Example 41, 2-amino-8-methoxy-N-[[2-(3-pyridyl)phenyl]methyl]quinazoline-4-carboxamide]: the affinity at human A2a receptor (setting [2]), expressed as Ki, was 9.2 nM. At human A1 receptor, the “A2a selectivity” value is on record as 56.
At human A2a receptor (setting [1]), `Nc1nc(C(=O)NCC23CC4CC(CC(C4)C2)C3)c2cccc(F)c2n1` [Example 85, N-(1-adamantylmethyl)-2-amino-8-fluoro-quinazoline-4-carboxamide] displayed a Ki of 6.4 nM. For the same molecule, the “A2a selectivity” value at human A1 receptor was determined as 4.
Take `COc1cccc2c(C(=O)NCc3cccc(COc4cccc(F)c4)n3)nc(N)nc12` [Example 54, 2-amino-N-[[6-[(3-fluorophenxoy)methyl]-2-pyridyl]methyl]-8-methoxy-quinazoline-4-carboxamide]: the affinity on human A2a receptor (setting [2]) corresponds to a Ki of 2.1 nM. The “A2a selectivity” value at human A1 receptor is 49.
Molecule `Nc1nc(C(=O)NCc2ccccc2-c2ncccn2)c2cccc(F)c2n1` [Example 64, 2-amino-8-fluoro-N-[(2-pyrimidin-2-ylphenyl)methyl]quinazoline-4-carboxamide] showed a Ki at human A2a receptor (setting [1]) of 0.9 nM. The “A2a selectivity” value at human A1 receptor is recorded as 235.
For `Cc1ccc(F)c(CNC(=O)c2nc(N)nc3c(-c4ncco4)cccc23)n1` [Example 98, 2-amino-N-[(3-fluoro-6-methyl-2-pyridyl)methyl]-8-oxazol-2-yl-quinazoline-4-carboxamide], the affinity at human A2a receptor (setting [1]) corresponds to a Ki of 1.7 nM. At human A1 receptor, the “A2a selectivity” value is reported as 133.
`COc1cccc2c(C(=O)NCc3cccc(-c4cccc(O)c4)n3)nc(N)nc12` [Example 8, 2-amino-N-[[6-(3-hydroxyphenyl)-2-pyridyl]methyl]-8-methoxy-quinazoline-4-carboxamide] displayed a Ki at human A2a receptor (setting [2]) of 3.3 nM. Also, on human A1 receptor, the “A2a selectivity” value is recorded as 4.
As to `CC1(O)CCN(c2cccc(CNC(=O)c3nc(N)nc4c(F)cccc34)n2)CC1` [Example 79, 2-amino-8-fluoro-N-[[6-(4-hydroxy-4-methyl-1-piperidyl)-2-pyridyl]methyl]quinazoline-4-carboxamide], the Ki on human A2a receptor (setting [1]) amounted to 5.2 nM. Also, the “A2a selectivity” value on human A1 receptor was found to be 14.
For `Nc1nc(C(=O)NCc2cccc3cccnc23)c2cccc(OC(F)(F)F)c2n1` [Example 101, 2-amino-N-(8-quinolylmethyl)-8-(trifluoromethoxy)quinazoline-4-carboxamide], in that order: 0.2 nM and 88.
Take `COc1cccc2c(C(=O)NC3(c4ccccn4)CC3)nc(N)nc12` [Example 40, 2-amino-8-methoxy-N-[1-(2-pyridyl)cyclopropyl]quinazoline-4-carboxamide]: the affinity on human A2a receptor (setting [1]) corresponds to a Ki of 929 nM. Also, at human A1 receptor, the “A2a selectivity” value is reported as 3.
On human A2a receptor (setting [1]), `COc1cccc2c(C(=O)NC(C)(C)c3ccccn3)nc(N)nc12` [Example 39, 2-amino-8-methoxy-N-[1-methyl-1-(2-pyridyl)ethyl]quinazoline-4-carboxamide] came in with a Ki of 415 nM. Moreover, the “A2a selectivity” value on human A1 receptor amounted to 9.
On human A2a receptor (setting [2]), `COc1cccc2c(C(=O)NCc3cccc(CSc4ccc(F)cc4)n3)nc(N)nc12` [Example 55, 2-amino-N-[[6-[(4-fluorophenyl)sulfanyl-methyl]-2-pyridyl]methyl]-8-methoxy-quinazoline-4-carboxamide] came in with a Ki of 3.2 nM. Moreover, on human A1 receptor, the “A2a selectivity” value is 36.
Take `COc1cccc(CNC(=O)c2nc(N)nc3c(OC)cccc23)n1` [Example 21, 2-amino-8-methoxy-N-[(6-methoxy-2-pyridyl)methyl]quinazoline-4-carboxamide]: the affinity at human A2a receptor (setting [1]), expressed as Ki, was 0.8 nM. Also, the “A2a selectivity” value on human A1 receptor was found to be 82.
In the case of `Nc1nc(C(=O)NCc2cccc(Cc3ccccc3F)n2)c2cccc(F)c2n1` [Example 111, 2-amino-8-fluoro-N-[[6-[(2-fluorophenyl)methyl]-2-pyridyl]methyl]quinazoline-4-carboxamide], the affinity on human A2a receptor (setting [2]) corresponds to a Ki of 1.3 nM. Also, the “A2a selectivity” value on human A1 receptor is on record as 28.
Molecule `Cc1ccc(CCNC(=O)c2nc(N)nc3c(F)cccc23)nc1` [Example 73, 2-amino-8-fluoro-N-[2-(5-methyl-2-pyridyl)ethyl)quinazoline-4-carboxamide] returned a Ki at human A2a receptor (setting [1]) of 225 nM. In addition, the “A2a selectivity” value on human A1 receptor is on record as 33.
Turning to `COc1cccc2c(C(=O)NCc3cccc(Cc4cccnc4)n3)nc(N)nc12` [Example 104, 2-amino-8-methoxy-N-((6-(pyridin-3-ylmethyl)pyridin-2-yl)methyl)quinazoline-4-carboxamide], affinity on human A2a receptor (setting [2]) was put at a Ki of 5 nM. For the same molecule, the “A2a selectivity” value at human A1 receptor is reported as 93.
In turn, `Nc1nc(C(=O)NCc2cccc3cccnc23)c2cccc(Cl)c2n1` [Example 91, 2-amino-8-chloro-N-(8-quinolylmethyl)quinazoline-4-carboxamide] had a Ki at human A2a receptor (setting [1]) of 3 nM. Also, the “A2a selectivity” value at human A1 receptor worked out at 70.
For the molecule `COc1cccc2c(C(=O)NCc3cccc(C(F)(F)F)n3)nc(N)nc12` [Example 18, 2-amino-8-methoxy-N-[[6-(trifluoromethyl)-2-pyridyl]methyl]quinazoline-4-carboxamide], the Ki on human A2a receptor (setting [1]) was 0.4 nM. In addition, on human A1 receptor, the “A2a selectivity” value amounted to 412.
At human A2a receptor (setting [1]), `COc1cccc2c(C(=O)NCc3cccc(C(C)(C)O)n3)nc(N)nc12` [Example 9, 2-amino-N-[[6-(1-hydroxy-1-methyl-ethyl)-2-pyridyl]methyl]-8-methoxy-quinazoline-4-carboxamide] registered a Ki of 0.4 nM. The “A2a selectivity” value at human A1 receptor was 764.

In general, Ki refers to a measure of affinity in units of concentration, obtained from inhibition or displacement. Higher therefore signals a looser hold on the target.
